# Literature values as cited in patent US20250127701A1, “Cosmetical use of a topically applicable rinse-of composition (RC)” (Wella Germany GmbH, priority 2023, published 2025).
# Legend:
# [1] = biological target: T1, olfactory receptor OR2AT4 (Homo sapiens, UniProt A6NND4); conditions: receptor expressed in the epithelium of human hair follicles
# T1 sequence (A6NND4 1-320): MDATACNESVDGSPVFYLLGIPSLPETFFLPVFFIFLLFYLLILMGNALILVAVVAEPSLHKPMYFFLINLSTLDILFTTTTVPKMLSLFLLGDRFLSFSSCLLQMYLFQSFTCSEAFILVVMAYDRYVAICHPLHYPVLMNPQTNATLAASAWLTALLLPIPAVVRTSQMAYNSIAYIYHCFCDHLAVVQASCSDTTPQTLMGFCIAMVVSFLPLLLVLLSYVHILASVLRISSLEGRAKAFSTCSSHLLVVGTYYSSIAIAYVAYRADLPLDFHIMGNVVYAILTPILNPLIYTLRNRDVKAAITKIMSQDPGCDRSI
# [2] = system: hair shaft, hair matrix keratinocytes; conditions: studies have shown
Effect on the olfactory receptor OR2AT4 [1],Structure (SMILES),Effect on anagen duration [2],Effect on hair shaft elongation [2],Effect on proliferation of hair matrix keratinocytes [2]
stimulatory effect,"CC1=CCC(CCC(C)C(C)O)C1(C)C (stereo not shown) [Sandal pentanol, 3-methyl-5-(2,2,3-trimethylcyclopent-3-en-1-yl)pentan-2-ol]",,,
,"Cn1c(=O)c2c(ncn2C)n(C)c1=O [caffeine, 1,3,7-trimethylxanthine]",prolonges anagen duration,enhances the hair shaft elongation,stimulates the proliferation of hair matrix keratinocytes
